From US20130096159A1, “INHIBITORS OF HUMAN 12-LIPOXYGENASE” (The United States of America, as represented the Secretary …, priority 2010, published 2013)

Tests used:
[1] = target: T1, recombinant human cPLA2 (Homo sapiens, UniProt P47712); assay: cPLA2 enzymatic activity assay; format: biochemical; conditions: 50 μM, 5 min of incubation; FIG. 8
T1 sequence (P47712 1-749): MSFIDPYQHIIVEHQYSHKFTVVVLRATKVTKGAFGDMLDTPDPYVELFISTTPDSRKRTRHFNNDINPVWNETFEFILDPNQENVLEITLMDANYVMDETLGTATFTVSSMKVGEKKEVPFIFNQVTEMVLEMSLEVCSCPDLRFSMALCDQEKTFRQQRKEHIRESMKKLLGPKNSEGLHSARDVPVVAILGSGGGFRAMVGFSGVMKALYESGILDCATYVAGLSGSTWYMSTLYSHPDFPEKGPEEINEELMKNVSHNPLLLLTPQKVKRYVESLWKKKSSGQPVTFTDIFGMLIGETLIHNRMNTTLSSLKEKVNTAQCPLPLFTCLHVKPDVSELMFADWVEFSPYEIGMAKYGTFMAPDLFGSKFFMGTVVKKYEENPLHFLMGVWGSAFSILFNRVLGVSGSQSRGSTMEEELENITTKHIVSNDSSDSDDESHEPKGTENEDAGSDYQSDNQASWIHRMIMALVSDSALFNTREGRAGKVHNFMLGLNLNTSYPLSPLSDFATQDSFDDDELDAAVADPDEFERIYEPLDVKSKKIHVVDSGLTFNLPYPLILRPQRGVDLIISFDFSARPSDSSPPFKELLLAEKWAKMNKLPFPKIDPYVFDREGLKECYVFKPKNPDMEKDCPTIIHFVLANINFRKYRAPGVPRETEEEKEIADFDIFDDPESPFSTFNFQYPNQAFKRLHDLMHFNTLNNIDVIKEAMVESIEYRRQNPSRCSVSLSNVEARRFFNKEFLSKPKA
Procedure: A., et al., Biochemistry, 2011, 50: 1731-1738 with the following differences. The inhibitors in solution in DMSO were added at a final concentration of 50 μM right before the recombinant enzyme was added to initiate the reaction. After 5 min of incubation, the products of reaction were analyzed, and the results depicted in FIG. 8.

[2] = test system: integrin αIIbβ3 in human platelets; assay: activation of integrin αIIbβ3, PAC1 binding by flow cytometry; format: cell-based; conditions: vs agonists alone (thrombin, PAR1-AP, PAR4-AP, ADP); FIG. 5
Procedure: (§1) Human platelets were obtained from healthy volunteers from within the Thomas Jefferson University community and the Philadelphia area. These studies were approved by the Thomas Jefferson University Institutional Review Board. Informed consent was obtained from all donors before blood draw. Blood was centrifuged at 200 g for 15 min at room temperature. Platelet-rich plasma was transferred into a conical tube containing a 10% acid citrate dextrose solution (39 mM citric acid, 75 mM sodium citrate, and 135 mM glucose, pH 7.4) and centrifuged at 2000 g for 15 min at room temperature. Platelets were resuspended in Tyrode's buffer (12 mM NaHCO3, 127 mM NaCl, 5 mM KCl, 0.5 mM NaH2PO4, 1 mM MgCl2, 5 mM glucose, and 10 mM HEPES), and the final platelet concentration was adjusted as indicated after counting using a Coulter counter (Beckman Coulter, Fullerton, Calif.). Reported results are the data obtained using platelets from at least three different subjects.
Washed platelets were obtained as described in Example 10. Flow cytometry was used to measure the activation of integrin αIIbβ3. Specifically, PAC1 (an antibody which only binds to αIIbβ3 when the protein is in its active conformation) binding was used to selectively detect the conformational activation of αIIbβ3. […] The fluorescence intensity of 10,000 platelets was immediately measured using a C6 Accuri flow cytometer. […]

[3] = test system: human platelets; assay: platelet aggregation in response to agonists, light transmission aggregometry; format: cell-based; conditions: agonists thrombin, arachidonic acid, PAR1-AP, PAR4-AP, ADP, collagen; 10 min pretreatment; FIG. 2
Procedure: as §1
Washed platelets were obtained as described in Example 10. […] Platelets were pretreated with compound 1 for 10 min and aggregation in response to stimulation by the agonists thrombin, PAR1-AP, PAR4-AP, ADP and collagen at various agonist concentrations was measured via the light transmission aggregometry method using a lumi-aggregometer model 700D (Chrono-log Corp., Havertown, Pa.) with stirring at 1100 rpm at 37° C. […]

[4] = test system: P-selectin on the surface of human platelets; assay: α-granule secretion, P-selectin expression by flow cytometry; format: cell-based; conditions: vs agonists alone (thrombin, PAR1-AP, PAR4-AP, ADP); FIG. 4
Procedure: as §1
Washed platelets were obtained as described in Example 10. Flow cytometry was used to measure the secretion of α-granules. Specifically, P-selectin expression was used to detect α-granule secretion. […] The fluorescence intensity of 10,000 platelets was immediately measured using a C6 Accuri flow cytometer. […]

In the case of `CCC(=O)NC(c1cccs1)c1cc([N+](=O)[O-])c2cccnc2c1O` (stereo not shown) [Compound 1, N-((8-hydroxy-5-nitroquinolin-7-yl)(thiophen-2-yl)methyl)propionamide], the “inhibition of cPLA2” value [1] was “did not inhibit cPLA2”, the “binding of PAC1 on the surface of the platelets” value [2] was “decreased binding of PAC1” and the “dose response curves for platelet aggregation” value [3] was “substantially unaffected”. For the same molecule, the “expression of P-selectin on the surface of the platelets” value [4] was “decreased expression of P-selectin”.
